Laboratory results taken from patent US5037637A, “Antibacterial antiplaque, anticalculus oral composition” (priority 1989, dated 1991).

Tests used:
[1] = Human clinical tests, reduction of plaque formation; format: in vivo
[2] = test system: four dental plaque organisms; experiment: Antibacterial effect on the four dental plaque organisms (summary in words); format: cell-based; conditions: solutions without TCHE
Experimental: Slurries and solutions described below are prepared to determine effectiveness in terms of minimum inhibitory concentration (MIC) of various antibacterial agents against a variety of oral bacterial organisms implicated in formation of plaque and leading to gingivitis on dental surfaces. Soft plaque contains about 1.7×10^11 organism/gm. (net weight). The antibacterial agents are admixed with anionic materials, particularly anionic surface active agent often commonly employed in oral compositions and polyphosphate anticalculus agent.
Minimum inhibitory concentration (MIC) of antibacterial agent is used to evaluate the efficacy of the agent in vitro. […] The smaller the MIC value the greater is the efficacy of the antibacterial agent to inhibit the growth of the bacteria. The in vitro MIC data is related to the efficacy of the dentifrice in vivo since retention and release of antibacterial agent into the oral cavity after toothbrushing is in the range of mcg/ml.

[3] = Adsorption of TCHE to saliva coated tooth mineral hydroxyapatite; design: species or system human; conditions: for % of TCHE Adsorbed to Coated HA: 37°, 3 hours
Experimental: The adsorption to and release from tooth minerals for antiplaque/ antitartar efficacy of agents is assessed by adsorption of antibacterial agent to saliva coated tooth mineral hydroxyapatite in the presence and the absence of pyrophosphate (soluble tetrasodium pyrophosphate)/Gantrez/NaF.
200 mg. of hydroxyapatite (HA) is treated with human saliva for 2 hours. The excess saliva is washed with a buffer and saliva coated HA is used for adsorption studies. Various concentrations of TCHE in SLS or in SLS/pyrophosphate/Gantrez/NaF are mixed with the coated HA and incubated at 37° for 3 hours under continuous agitation. At the end of incubation period, the mixtures are centrifuged, HA separated and the amounts of TCHE adsorbed determined by estimating TCHE in the supernatant at […] in a Gilford spectrophotometer. The amounts adsorbed are calculated by the difference between the amount added and the amount left in the supernatant after the incubation with coated HA. The table below summarizes the data.

Bacteriodes gingivalis = experiment: Antibacterial activity of dentifrice extracts, inhibition of growth; format: cell-based
Experimental: The dentifrice described in Example 3A is compared with the same composition except without any TCHE and with added 0.50 parts of water. Aqueous extracts of each dentifrice are prepared as follows: 50 ml of distilled water is added to 1.0 gm of each dentifrice, mixed well for a couple of hours with stirring bar and centrifuged, after which the supernatant is collected as aqueous extract. Antibacterial activity of the dentifrice extracts are evaluated on Bacteriodes gingivalis.

CC(C)(C)CC(C)(C)c1ccc(OCCOCC[N+](C)(C)Cc2ccccc2)cc1 [BTC, benzthonium chloride]
reducing plaque formation ([1]; 0.075% BTC and 1% pyrophosphate dissolved in water): is not | reducing plaque formation ([1]; 0.075% BTC dissolved in water): effective in reducing plaque formation

[H]/N=C(\N/C(=N/[H])NCCCCCCNC(=N)NC(=N)Nc1ccc(Cl)cc1)Nc1ccc(Cl)cc1 [CH, chlorhexidine digluconate]
reducing plaque formation ([1]; 0.1% CH and 1% sodium N-lauroyl sarcosinate dissolved in water): is not | reducing plaque formation ([1]; 0.1% CH dissolved in water): effective in reducing plaque formation

CCCCCCCCCCCCOS(=O)(=O)[O-].[Na+] [SLS, sodium lauryl sulfate]
antibacterial effect [2]: ineffective

Oc1cc(Cl)ccc1Oc1ccc(Cl)cc1Cl [TCHE, 2,4,4'-trichloro-2'-hydroxydiphenyl ether]
% of TCHE Adsorbed to Coated HA ([3]; 0.005% TCHE in 1% SLS, 0.5% Gantrez, 2% pyrophosphate/0.24% NaF): 80% | % of TCHE Adsorbed to Coated HA ([3]; 0.005% TCHE in 1% SLS): 80% | % of TCHE Adsorbed to Coated HA ([3]; 0.01% TCHE in 1% SLS, 0.5% Gantrez, 2% pyrophosphate/0.24% NaF): 85% | % of TCHE Adsorbed to Coated HA ([3]; 0.01% TCHE in 1% SLS): 85% | % of TCHE Adsorbed to Coated HA ([3]; 0.015% TCHE in 1% SLS, 0.5% Gantrez, 2% pyrophosphate/0.24% NaF): 86% | % of TCHE Adsorbed to Coated HA ([3]; 0.015% TCHE in 1% SLS): 85% | % of TCHE Adsorbed to Coated HA ([3]; 0.02% TCHE in 1% SLS, 0.5% Gantrez, 2% pyrophosphate/0.24% NaF): 87% | % of TCHE Adsorbed to Coated HA ([3]; 0.02% TCHE in 1% SLS): 88% | effect of addition of pyrophosphate/Gantrez/NaF on adsorption of TCHE to saliva coated tooth minerals ([3]; with vs without pyrophosphate/Gantrez/NaF): does not impair adsorption | compatibility in dentifrice composition containing anionic surfactant plus pyrophosphate with Gantrez and NaF (Bacteriodes gingivalis; from growth inhibition by dentifrice extracts): compatible | inhibition at 5 µg/mL (Bacteriodes gingivalis; read-out: Inhibition of Growth of Bacteriodes Gingivalis): 100%
